Measurements published in article PMC7515829, “HKDC1 C-terminal based peptides inhibit extranodal natural killer/T-cell lymphoma by modulation of mitochondrial function and EBV suppression” (Leukemia, 2020).

What was measured:
SNK6 xenograft = experiment: Tumor growth by H&E staining (tumor spots); assay type: in vivo, mouse; settings: nude mice, intratumoral 50 µM peptide every 2 days from day ~18, tissue day 50, vs CTL, n = 5
Text: (§1) Biomedical analysis of tumor tissues.

SNK6 cells [1] = experiment: Intracellular ATP level (luciferin/luciferase); assay type: cell-based, human; settings: 0.5 µM peptide, 6 h, vs CTL, n = 5 (Fig. 4g)
Description: Measurement of mitochondrial function. Intracellular ATP level was determined using the luciferin/luciferase-induced bioluminescence system. An ATP standard curve was generated at concentrations of 10^-12-10^-3M, and intracellular ATP levels were calculated and expressed as nmol/mg protein. Mitochondrial membrane potential (Δψm) was measured using TMRE (from Molecular Probes T-669) staining. A 600μM T-669 stock solution was prepared using DMSO. Cells were grown on coverslips and immersed in 600nM TMRE for 20 min at 37°C to load them with dye. The labeling medium was then aspirated and the cells were immersed in 150nM TMRE to maintain an equal distribution of the fluorophore. The coverslips were mounted with live cells onto confocal microscopes to image the cells using 548nm excitation/573nm emission filters, and the intensity of TMRE fluorescence was measured using Image J software. Data from 10-20 cells were collected for each experimental condition and mean values of fluorescence intensity ± SEM were calculated (12).

BZLF1 = experiment: mRNA level by qPCR in SNK6 cells; assay type: cell-based, EBV; settings: 0.5 µM peptide, 6 h, vs CTL, n = 4 (Fig. 3f)
Description: (§2) Fig. 3 Peptide for the last eight aa of HKDC1 at the C-terminal (Tf-D-HKC8) inhibits EBV replication and P-gp expression through ROS generation and DNA damage in ENKTL cells. SNK6 cells were treated with control (CTL), Tf-D-HKN15, Tf-D-HKC15, or Tf-D-HKC8 peptide (0.5 µM) for 6 h and the cells were used for biomedical analysis. a ROS formation, n = 5. b 3-nitrotyrosine (3-NT) formation, n = 5. c 8-OHdG formation, n = 5. d Quantitation of γH2AX formation, n = 5. e Representative western blotting bands for d. f mRNA level by qPCR for BZLF1, BMRF1, and ABCB1, n = 4. g Protein quantitation for Zta, EA-D, and P-gp, n = 5. h Representative pictures of western blots for g. i EBV viral genomes/cell by qPCR, n = 4. *P < 0.05, vs CTL group; ^¶P < 0.05, vs Tf-D-HKC15 group. Results were expressed as mean ± SEM.

BMRF1 = experiment: mRNA level by qPCR in SNK6 cells; assay type: cell-based, EBV; settings: 0.5 µM peptide, 6 h, vs CTL, n = 4 (Fig. 3f)
Description: as §2

SNK6 cells [2] = settings: 0.5 µM peptide, 6 h, vs CTL, n = 3 (Fig. 5g)
Description: Immunostaining. […] The cells were then washed three times and the FITC labeled anti-mouse secondary antibody (1:100) was added for blotting for another 1 hour. After thorough washing, the slides were visualized and photographed, the nuclei of cells were stained with 4’,6-diamidino-2-phenylindole dihydrochloride (DAPI, #D9542, from Sigma), and the positive Ki-67 cells were quantitated.

SNK6 cells [3] = experiment: ROS formation (CM-H2DCFDA); assay type: cell-based, human; settings: 0.5 µM peptide, 6 h, compared with CTL group, n = 5 (Fig. 3a)
Description: Measurement of ROS generation. Treated cells were seeded in a 24-well plate and incubated with 10μM CM-H2DCFDA (Invitrogen) for 45 min at 37°C, and then the intracellular formation of reactive oxygen species (ROS) was measured at excitation/emission wavelengths of 485/530nm using a FLx800 microplate fluorescence reader (Bio-Tek). The data was normalized as arbitrary units (8, 11).

HKDC1/VDAC1 = HKDC1/VDAC1 (Homo sapiens, UniProt P21796); experiment: IP/WB HKDC1 binding with VDAC1 in xenograft tumor tissue; assay type: in vivo, mouse; design: from tissue; host or cells: SNK6 xenograft tumor tissue from Balb/c athymic nude mice; settings: SNK6 xenograft, nude mice; intratumoral 50 µM peptide every 2 days from day ~18; tissue day 50; IP/WB vs CTL; n = 5
Sequence of HKDC1/VDAC1 (P21796 2-283 limits assumed): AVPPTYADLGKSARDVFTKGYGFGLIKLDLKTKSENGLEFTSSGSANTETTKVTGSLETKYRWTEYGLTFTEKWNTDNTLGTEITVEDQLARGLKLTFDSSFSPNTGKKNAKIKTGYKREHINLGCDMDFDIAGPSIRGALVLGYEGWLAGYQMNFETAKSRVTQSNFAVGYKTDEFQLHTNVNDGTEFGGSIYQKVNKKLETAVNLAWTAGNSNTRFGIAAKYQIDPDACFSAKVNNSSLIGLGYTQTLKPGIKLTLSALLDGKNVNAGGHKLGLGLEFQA
Description: Immunoprecipitation (IP) and Western Blotting (WB). Cell lysates were pre-cleared by pre-immune IgG plus Protein A agarose beads for 2 hours, and the supernatants were immunoprecipitated by the indicated antibodies and a 50% slurry of Protein A Agarose beads overnight at 4 °C (9). After washing with buffer containing 50 mM Tris, pH 7.5, 150 mM NaCl, 1% NP-40, and 0.5% deoxycholate with protease inhibitors, proteins were released, separated on 10% SDS-PAGE gels, blotted by primary antibodies, and then simultaneously incubated with the differentially labeled species-specific secondary antibodies, anti-RABBIT IRDye™ 800CW (green) and anti-MOUSE (or goat) ALEXA680 (red). Membranes were scanned and quantitated by the ODYSSEY Infrared Imaging System (LI-COR, NE) (10).
as §1

EBV Zta = experiment: Protein level in xenograft tumor tissue (western blot); assay type: in vivo; settings: SNK6 xenograft, Balb/c athymic nude mice; intratumoral 50 µM peptide, 20 µl per tumor, every 2 days from day ~18; tissue day 50; western blot vs CTL; n = 5
Text: as §1

SNK6 cells [4] = experiment: Peptide delivery efficiency, 125I-labeled uptake assay; assay type: in vitro ADME, human; settings: 125I label on tyrosine, 0.5 µM peptide, 6-h incubation, media and cells counted by liquid scintillation counter, mean, n = 4 (Fig S1)
Text: We investigated the potential role of HKDC1-based peptides in ENKTL cells that were isolated from the MNCs of ENKTL patients or SNK6 cell line. Three different kinds of HKDC1-based targeting peptides, including the last 15 aa at either the N-terminal (HKN15) or C-terminal (HKC15), or the last eight aa at the C-terminal (HKC8) were selected; four different kinds of cell-penetrating sequences were employed to deliver the HKDC1-based peptides, including Antp (a 16 penetrating residue long sequence from the Drosophila antennapedia-homeodomain), penetration-accelerating segment, TAT (HIV-1 TAT sequence), and Tf (the Tf receptor (TfR) internalization sequence) sequences. All of the aa with the D-configuration (marked as D) were synthesized as retro-inverso peptides. […] We then evaluated the toxic effect of two peptides (including Tf-D-HKC15 and Tf-D-HKC8) on different kinds of primary and cancer cell lines (see details in Table 2). […] We also evaluated the peptide delivery efficiency using ^125I-labeled uptake assay for both Tf-D-HKC8 and Tf-D-HKC15 peptides. […]
Figure S1. […] 0.5µM each of peptide was incubated with SNK6 cells for 6 hours, then both culture media and SNK6 cells were harvested for radioactivity assay using Liquid Scintillation Counter. n=4. *, P<0.05, vs Intracellular group. Results were expressed as mean ± SEM.

Substance	tumor growth using H&E staining (tumor spots) (SNK6 xenograft) [%]	intracellular ATP generation (SNK6 cells [1]) [%]	BZLF1 mRNA (BZLF1) [%]	BMRF1 mRNA (BMRF1) [%]	cell proliferation by quantitation of Ki-67 positive cells (SNK6 cells [2]) [%]	ROS formation (SNK6 cells [3]) [%]	HKDC1 binding with VDAC1 in tumor (HKDC1/VDAC1) [%]	EBV Zta protein levels in tumor (EBV Zta) [%]	peptide delivered into SNK6 cells (delivery efficiency) (SNK6 cells [4]) [%]
HAIYPRH-ITAVAKRLQQAQKEN [Tf-D-HKC15]	56	61	47	65	70	165	71	65	35.6
HAIYPRH-LQQAQKEN [Tf-D-HKC8]	23	30	21	31	27	229	38	32	53.4
